How the values were obtained:
[1] = tested on: KRAS G12D mutated AGS (3D) cells; test: Proliferation inhibition of KRAS G12D mutated AGS (3D) cells (methylcellulose 3D culture, CTG, 120 h); format: cell-based; details: Homo sapiens
Description: The inhibitory effect of representative compounds on the 3D proliferation of the AGS cell line was evaluated by non-adherent, spherical growth in a methylcellulose 3D culture medium.
The following materials, instruments and reagents were used in this experiment: Culture medium RPMI1640 (HyClone, Cat #SH30809.01); Fetal bovine serum FBS (GBICO, Cat #10099-141); CellTiter-Glo® Luminescent Cell Viability Assay (Novozymes Nanjing, Cat #DD1101-04); 96-well Polystyrene microplates (black-wall) (Greiner Bio one, Cat. #655096); Methylcellulose (SIGMA, CAS: 9004-67-5); AGS cells (KC-0405, Kangyuan Bochuang Biotechnology (Beijing) Co., Ltd.); Multifunctional microplate reader (BMG LABTECH, CLARIOstar® Plus); CO2 incubator (Thermo Scientific, Model 3100 Series).
Cell Culture and Inoculation: The cells in the logarithmic growth phase were harvested and cell counting was performed using a platelet counter. The cell viability was detected by Trypan Blue exclusion method to ensure that the cell viability was above 90%. The cell concentration was adjusted. After there were no visible air bubbles in the cell suspension, 180 μL of the cell suspension was added to each well of a 96-well plate respectively, so that the final concentration of methylcellulose was 0.65% and the number of cells was 2400 per well. The cells in the 96-well plate were cultured overnight at 37° C., 5% CO2 and 95% humidity.
The drug dilution and administration were carried out as follows: A 10-fold concentrated drug solution was prepared with the culture medium. 20 μL of the drug solution was added to each well of the 96-well plate inoculated with cells to make the maximum working concentration 10 μM, with a 3.16× dilution, a total of 9 concentrations. Three replicate wells were set for each drug concentration and the DMSO content was 0.1%. The cells in the 96-well plate with the added drugs were continuously cultured at 37° C., 5% CO2 and 95% humidity for 120 h, and then a CTG analysis was performed.
(§1) The CTG reagent was thawed and the cell plate was equilibrated to room temperature for 30 minutes. An equal volume of CTG solution was added to each well, and the plate was shaken on an orbital shaker for 5 minutes to lyse the cells. The cell plate was placed at room temperature for 20 minutes to stabilize the luminescence signal, and then the luminescence value was read.
The data were analyzed using GraphPad Prism 7.0 software. The data were fitted by nonlinear S-curve regression to obtain the dose-response curve, and the IC50 value was calculated accordingly. Cell survival rate (%)=(LumTest drug−LumMedium control)/(LumCell control−LumMedium control)×100%.

[2] = tested on: KRAS G12D mutated AGS human gastric adenocarcinoma cells; test: Proliferation inhibition of KRAS G12D mutant AGS cells (CellTiter-Glo, 3 days; IC50 and single-point inhibition rate at 1 μM); format: cell-based; details: 72 h, 3 days incubation, max concentration 10 μM
Description: This experiment assessed and validated the proliferation inhibitory activity of some compounds of the present invention against KRAS G12D mutant AGS cells.
Incubate at 37° C., 5% CO2, 95% humidity.
The following materials, instruments, and reagents were used in this experiment: Fetal Bovine Serum FBS (GIBCO, Cat #10099-141); CellTiter-Glo® Luminescent Cell Viability Assay (Promega, Cat #G7572); 96-well clear flat-bottom black-wall plate (Corning®, Cat #3603); SpectraMax multimode microplate reader (MD, 2104-0010A); CO2 Incubator (Thermo Scientific, Model 3100 Series); Biosafety cabinet (Thermo Scientific, Model 1300 Series A2); Inverted microscope (Olympus, CKX41SF); AGS cell line was purchased from Nanjing Kebai Biotechnology Co., Ltd., under the lot number CBP60476.
Cell culture and inoculation: The cells in the logarithmic growth phase were harvested, and cell counting was performed using a platelet counter. The cell viability was detected by Trypan Blue exclusion method to ensure that the cell viability was above 90%. The cell concentration was adjusted. Then, 90 μL of the cell suspension was added to each well of a 96-well plate respectively, and the cells in the 96-well plate were cultured at 37° C. and 5% CO2.
Drug dilution and addition: a) For the preparation of drugs for single-point inhibition rate determination: A 10-fold concentrated drug solution was prepared. 10 μL of the drug solution was added to each well of the 96-well plate inoculated with cells to make the working concentration 1 μM, and three replicate wells were set for each drug concentration; b) For the preparation of drugs for IC50 determination: A 10-fold concentrated drug solution was prepared. 10 μL of the drug solution was added to each well of the 96-well plate inoculated with cells to make the maximum working concentration 10 μM, with a 3.16× dilution and a total of 9 concentrations. Three replicate wells were set for each drug concentration. The cells in the 96-well plate with the added drugs were incubated at 37° C. and 5% CO2 for another 3 days, and then the CTG assay was performed.
as §1, with “thawed,” for “thawed”
The data were analyzed using GraphPad Prism 7.0 software. The data were fitted by nonlinear S-curve regression to obtain the dose-response curve, and the IC50 value was calculated accordingly.

[3] = tested on: KRAS-G12D mutated human colon carcinoma cells GP2d; test: Antitumor effect, subcutaneous xenograft of KRAS-G12D mutated human colon carcinoma cells GP2d; format: in vivo; details: BALB/c nude mice, 10 mg/kg, gavage, twice a day; for TGI (%): Day 21
Description: GP2d cells were purchased from Nanjing Kebai Biotechnology Co., Ltd. BALB/c nude mice, female, were purchased from Jiangsu GemPharmatech LLC. GP2d cells were cultured in culture medium containing DMEM and 10% FBS. The cells in the logarithmic growth phase were collected and resuspended in PBS to an appropriate concentration for subcutaneous tumor inoculation in mice. The experimental mice were subcutaneously inoculated on the right posterior side of the back. The inoculation dose of GP2d cells was 1×10^7 cells per mouse, and the cells were resuspended in a 1:1 mixture of PBS and Matrigel (the inoculation volume was 0.1 mL). When the average tumor volume grew to 150 mm^3, the mice were randomly grouped for administration according to the tumor size and body weight. Administration was started immediately after grouping, and the day of administration was regarded as day 0. The administration was carried out twice a day by gavage, at a dose of 10 mg/kg or a solvent control (0.5% Tween 80+99.5% of (0.5% MC (400 cp))). During the experiment, the body weight of the mice and the size of the tumors were measured twice a week.
The formula for calculating the tumor size: Tumor volume (mm^3)=0.5×(long diameter of tumor×(short diameter of tumor)^2).
Relative tumor inhibition rate TGI (%): TGI %=[1−(average tumor volume at the end of administration of the treatment group−average tumor volume at the beginning of administration of the treatment group)/(average tumor volume at the end of administration of the vehicle control group −average tumor volume at the beginning of administration of the vehicle control group)]×100%.

[4] = tested on: KRAS G12D mutated AGS human gastric adenocarcinoma cells; test: Proliferation inhibition of KRAS G12D mutant AGS cells, another experiment with similar protocol (includes MRTX1133); format: cell-based; details: Homo sapiens
Description: In another experiment, using a protocol similar to the one described above, the inhibitory activity of some representative compounds of the present invention against KRAS G12D mutated AGS human gastric adenocarcinoma cells was determined.
The synthesis of compound MRTX1133 was performed according to the method described in J. Med. Chem. 2022, 65, 4, 3123-3133.

| SMILES | IC50 [1] [nM] | IC50 [2] [nM] | Tumor volume (mm3) (Day 21) [3] | TGI (%) [3] [%] | IC50 [4] [nM] |
| --- | --- | --- | --- | --- | --- |
| C#Cc1c(F)ccc2cc(O)cc(-c3c(F)cc4c(N5CC6CCC(C5)N6)nc(OC[C@]5(C)CN(CC=C)CCC5(F)F)nc4c3F)c12 (atropisomer, axis not shown; (Ra)) [Example 42] | 47 | 150 |  |  |  |
| C#Cc1c(F)ccc2cc(O)cc(-c3c(F)cc4c(N5CC6CCC(C5)N6)nc(OC[C@]5(C)CN(CC)CCC5(F)F)nc4c3F)c12 (atropisomer, axis not shown; (Ra)) [Example 43, (Ra)-4-(4-((1R,5S)-3,8-diazabicyclo[3.2.1]octan-3-yl)-2-(((S)-1-ethyl-4,4-difluoro-3-methylpiperidin-3-yl)methoxy)-6,8-difluoroquinazolin-7-yl)-5-ethynyl-6-fluoronaphthalen-2-ol] | 11 | 37 |  |  |  |
| C#Cc1c(F)ccc2cc(O)cc(-c3c(F)cc4c(N5CC6CCC(C5)N6)nc(OC[C@]5(C)CN(CCF)CCC5(F)F)nc4c3F)c12 (atropisomer, axis not shown; (Ra)) [Example 44, (Ra)-4-(4-((1R,5S)-3,8-diazabicyclo[3.2.1]octan-3-yl)-2-(((S)-4,4-difluoro-1-(2-fluoroethyl)-3-methylpiperidin-3-yl)methoxy)-6,8-difluoroquinazolin-7-yl)-5-ethynyl-6-fluoronaphthalen-2-ol] | 118 | 217 |  |  |  |
| CN1CC/C(=C\F)[C@](C)(COc2nc(N3CC4CCC(C3)N4)c3cc(Cl)c(-c4cccc5sc(N)c(C#N)c45)c(F)c3n2)C1 (single isomer, unassigned) [Example 313-1] |  |  | 256 | 88 |  |
| [2H]C([2H])([2H])N1CC[C@H](C(F)F)[C@](C)(C([2H])([2H])Oc2nc(N3CC4CCC(C3)N4)c3cc(Cl)c(-c4cccc5sc(N)c(C#N)c45)c(F)c3n2)C1 (single isomer, unassigned) [Example 315-1] |  |  | 325 | 80 |  |
| CN1CC[C@H](C(F)F)[C@](C)(COc2nc(N3CC4CCC(C3)N4)c3cc(Cl)c(-c4c(F)ccc5sc(N)c(C#N)c45)c(F)c3n2)C1 (single isomer, unassigned) [Example 325-1] |  |  | 228 | 91 | 2 |
| C#Cc1c(F)ccc2cc(O)cc(-c3c(F)cc4c(N5CC6CCC(C5)N6)nc(OC[C@]5(C)CN(C)CCC5(F)F)nc4c3F)c12 [Example 6-2] | 17 | 32 |  |  |  |
| C#Cc1c(F)ccc2cc(O)cc(-c3nc(C#C)c4c(N5CC6CCC(C5)N6)nc(OC[C@]5(C)CN(C)CC/C5=C\F)nc4c3F)c12 [Example 332] |  |  | 419 | 70 | 1 |
